Source: patent US20150105252A1, “SUBSTITUTED PYRAZOLES AS HERBICIDES” (E I DU PONT DE NEMOURS AND COMPANY, priority 2013, published 2015)

Legend:
foxtail, green = experiment: Test D postemergence; type: in vivo, Setaria viridis; settings: scale 0 to 100
In short: (§1)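 Visual 0–100 control ratings at 14–21 days in a controlled growth environment. Application preemergence onto silt loam or postemergence onto 2–18 cm seedlings, using a non-phytotoxic solvent formulation with surfactant.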

kochia = experiment: Test D postemergence; type: in vivo, Kochia scoparia; settings: scale 0 to 100
From the text: (§2) Seeds of plant species selected from bluegrass (annual bluegrass, Poa annua), blackgrass (Alopecurus myosuroides), canarygrass (littleseed canarygrass, Phalaris minor), chickweed (common chickweed, Stellaria media), galium (catchweed bedstraw, Galium aparine), bromegrass, downy (downy bromegrass, Bromus tectorum), field poppy (Papaver rhoeas), field violet (Viola arvensis), foxtail, green (green foxtail, Setaria viridis), deadnettle (henbit deadnettle, Lamium amplexicaule), ryegrass, Italian (Italian ryegrass, Lolium multiflorum), kochia (Kochia scoparia), lambsquarters (Chenopodium album), oilseed rape (Brassica napus), pigweed (redroot pigweed, Amaranthus retroflexus), chamomile (scentless chamomile, Matricaria inodora), speedwell (bird's-eye speedwell, Veronica persica), barley, spring (spring barley, Hordeum vulgare), wheat, spring (spring wheat, Triticum aestivum), buckwheat, wild (wild buckwheat, Polygonum convolvulus), mustard, wild (wild mustard, Sinapis arvensis), oat, wild (wild oat, Avena fatua), radish, wild (wild radish, Raphanus raphanistrum), windgrass (Apera spica-venti), Russian thistle (Salsola kali), barley, winter (winter barley, Hordeum vulgare), and wheat, winter (winter wheat, Triticum aestivum) were planted into a silt loam soil and treated preemergence with test chemicals formulated in a non-phytotoxic solvent mixture which included a surfactant.
(§3) At the same time, these species were planted in pots containing Redi-Earth® planting medium (Scotts Company, 14111 Scottslawn Road, Marysville, Ohio 43041) comprising spaghnum peat moss, vermiculite, wetting agent and starter nutrients and treated with postemergence applications of the test chemicals formulated in the same manner. Plants ranged in height from 2 to 18 cm (1- to 4-leaf stage). Treated plants and controls were maintained in a controlled growth environment for 14 to 21 days after which time all species were compared to controls and visually evaluated. Plant response ratings, summarized in Table D, are based on a scale of 0 to 100 where 0 is no effect and 100 is complete control. A dash (-) response means no test result.

galium = experiment: Test D postemergence; type: in vivo, Galium aparine; settings: scale 0 to 100
In short: as §1

oilseed rape [1] = experiment: Test D preemergence; type: in vivo, Brassica napus; settings: scale 0 to 100
In short: as §1

mustard, wild = experiment: Test D postemergence; type: in vivo, Sinapis arvensis; settings: scale 0 to 100
In short: as §1

pigweed, palmer = experiment: Test F preemergence; type: in vivo, Amaranthus palmeri
In short: (§4)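 Greenhouse study; evaluation window 14–21 days post-treatment. Seedlings sprayed postemergence measured 2–18 cm, while preemergence treatments went on silt loam soil. Non-phytotoxic solvent mixture with surfactant served as vehicle; response assessed by eye, 0–100 scale.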

green foxtail = experiment: Test F preemergence; type: in vivo, Setaria viridis
In short: as §4

common waterhemp = experiment: Test F preemergence; type: in vivo, Amaranthus rudis
In short: as §4

wild poinsettia = experiment: Test F preemergence; type: in vivo, Euphorbia heterophylla
In short: as §4

lambsquarters = experiment: Test D preemergence; type: in vivo, Chenopodium album; settings: scale 0 to 100
From the text: as §2, §3

oilseed rape [2] = experiment: Test D postemergence; type: in vivo, Brassica napus; settings: scale 0 to 100
In short: as §1

fall panicum = experiment: Test F preemergence; type: in vivo, Panicum dichotomiflorum
In short: as §4

wheat, spring = experiment: Test D postemergence; type: in vivo, Triticum aestivum; settings: scale 0 to 100
In short: as §1

wheat, winter = experiment: Test D postemergence; type: in vivo, Triticum aestivum; settings: scale 0 to 100
In short: as §1

[3] = Preemergence, 31 g ai/ha, scale 0 to 100
[4] = Preemergence, 62 g ai/ha, scale 0 to 100
[5] = Preemergence, 125 g ai/ha, scale 0 to 100
[6] = preemergence, 8 g ai/ha, scale 0 to 100, 100 is complete control
[7] = preemergence, 16 g ai/ha, scale 0 to 100, 100 is complete control

`CCc1cc(C(=O)NCC(F)(F)F)nn1Cc1ccnc(C(F)(F)F)c1` [Compound 78, 5-ethyl-N-(2,2,2-trifluoroethyl)-1-[[(2-trifluoromethyl)-4-pyridinyl]methyl]-1H-pyrazole-3-carboxamide] was tested, and the “Foxtail, Green plant response rating” value (foxtail, green; Postemergence, 31 g ai/ha) was 25, the “Foxtail, Green plant response rating” value (foxtail, green; Postemergence, 125 g ai/ha) was 70 and the “Foxtail, Green plant response rating” value (foxtail, green; Postemergence, 250 g ai/ha) was 80. The “Foxtail, Green plant response rating” value (foxtail, green; postemergence, 62 g ai/ha) was 60, the “Kochia plant response rating” value (kochia; Postemergence, 31 g ai/ha) was 75 and the “Kochia plant response rating” value (kochia; Postemergence, 125 g ai/ha) was 80. For the same compound, the “Kochia plant response rating” value (kochia; Postemergence, 250 g ai/ha) was 75, the “Kochia plant response rating” value (kochia; postemergence, 62 g ai/ha) was 80 and the “Galium plant response rating” value (galium; Postemergence, 31 g ai/ha) was 60. For the same compound, the “Galium plant response rating” value (galium; Postemergence, 125 g ai/ha) was 80, the “Galium plant response rating” value (galium; Postemergence, 250 g ai/ha) was 85 and the “Galium plant response rating” value (galium; postemergence, 62 g ai/ha) was 70. The “Plant response rating, Oilseed Rape” value (oilseed rape [1]; 31 g ai/ha) was 35, the “Plant response rating, Oilseed Rape” value (oilseed rape [1]; 62 g ai/ha) was 80 and the “Plant response rating, Oilseed Rape” value (oilseed rape [1]; 125 g ai/ha) was 100. The “Plant response rating, Oilseed Rape” value (oilseed rape [1]; 250 g ai/ha) was 100, the “Mustard, Wild plant response rating” value (mustard, wild; Postemergence, 31 g ai/ha) was 40 and the “Mustard, Wild plant response rating” value (mustard, wild; Postemergence, 125 g ai/ha) was 90. The “Mustard, Wild plant response rating” value (mustard, wild; Postemergence, 250 g ai/ha) was 90, the “Mustard, Wild plant response rating” value (mustard, wild; postemergence, 62 g ai/ha) was 70 and the “Plant response rating, Pigweed, Palmer” value (pigweed, palmer; [3]) was 35. The “Plant response rating, Pigweed, Palmer” value (pigweed, palmer; [4]) was 100, the “Plant response rating, Pigweed, Palmer” value (pigweed, palmer; [5]) was 100 and the “Plant response rating, Pigweed, Palmer” value (pigweed, palmer; [6]) was 20. For the same compound, the “Plant response rating, Pigweed, Palmer” value (pigweed, palmer; [7]) was 40, the “Plant response rating, Green Foxtail” value (green foxtail; [3]) was 60 and the “Plant response rating, Green Foxtail” value (green foxtail; [4]) was 100. For the same compound, the “Plant response rating, Green Foxtail” value (green foxtail; [5]) was 100, the “Plant response rating, Green Foxtail” value (green foxtail; [6]) was 10 and the “Plant response rating, Green Foxtail” value (green foxtail; [7]) was 60. The “Plant response rating, Common Waterhemp” value (common waterhemp; [3]) was 100, the “Plant response rating, Common Waterhemp” value (common waterhemp; [4]) was 100 and the “Plant response rating, Common Waterhemp” value (common waterhemp; [5]) was 100. For the same compound, the “Plant response rating, Common Waterhemp” value (common waterhemp; [6]) was 65, the “Plant response rating, Common Waterhemp” value (common waterhemp; [7]) was 100 and the “Plant response rating, Wild Poinsettia” value (wild poinsettia; [3]) was 50. The “Plant response rating, Wild Poinsettia” value (wild poinsettia; [4]) was 65, the “Plant response rating, Wild Poinsettia” value (wild poinsettia; [5]) was 98 and the “Plant response rating, Wild Poinsettia” value (wild poinsettia; [6]) was 0. For the same compound, the “Plant response rating, Wild Poinsettia” value (wild poinsettia; [7]) was 0, the “Plant response rating, Lambsquarters” value (lambsquarters; 31 g ai/ha) was 95 and the “Plant response rating, Lambsquarters” value (lambsquarters; 62 g ai/ha) was 100. The “Plant response rating, Lambsquarters” value (lambsquarters; 125 g ai/ha) was 100, the “Plant response rating, Lambsquarters” value (lambsquarters; 250 g ai/ha) was 100 and the “Oilseed Rape plant response rating” value (oilseed rape [2]; Postemergence, 31 g ai/ha) was 35. For the same compound, the “Oilseed Rape plant response rating” value (oilseed rape [2]; Postemergence, 125 g ai/ha) was 60, the “Oilseed Rape plant response rating” value (oilseed rape [2]; Postemergence, 250 g ai/ha) was 80 and the “Oilseed Rape plant response rating” value (oilseed rape [2]; postemergence, 62 g ai/ha) was 50. For the same compound, the “Plant response rating, Fall Panicum” value (fall panicum; [3]) was 90, the “Plant response rating, Fall Panicum” value (fall panicum; [4]) was 100 and the “Plant response rating, Fall Panicum” value (fall panicum; [5]) was 100. For the same compound, the “Plant response rating, Fall Panicum” value (fall panicum; [6]) was 40, the “Plant response rating, Fall Panicum” value (fall panicum; [7]) was 70 and the “Wheat, Spring plant response rating” value (wheat, spring; Postemergence, 31 g ai/ha) was 0. The “Wheat, Spring plant response rating” value (wheat, spring; Postemergence, 125 g ai/ha) was 15, the “Wheat, Spring plant response rating” value (wheat, spring; Postemergence, 250 g ai/ha) was 25 and the “Wheat, Spring plant response rating” value (wheat, spring; postemergence, 62 g ai/ha) was 5. For the same compound, the “Wheat, Winter plant response rating” value (wheat, winter; Postemergence, 31 g ai/ha) was 10, the “Wheat, Winter plant response rating” value (wheat, winter; Postemergence, 125 g ai/ha) was 25 and the “Wheat, Winter plant response rating” value (wheat, winter; Postemergence, 250 g ai/ha) was 55. For the same compound, the “Wheat, Winter plant response rating” value (wheat, winter; postemergence, 62 g ai/ha) was 15.
